“And” between values parts separate entries of the source, which are not always exact repeats. Equal entries are not always repeated.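 Step 1: Grow cells in 96-well plates. Step 2: Expose to compound for 48 hours at 5 concentrations. Step 3: Interpolate endpoints linearly; if unreached, use highest concentration. GI50 is the concentration that inhibits growth by half. Definition used: TGI = concentration required for complete inhibition of growth.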
How the values were obtained:
Experiment in all cases: growth of human tumour cells (NCI), 48 h
DMS 114 small cell lung = system: DMS 114 small cell lung
DMS 273 small cell lung = system: DMS 273 small cell lung
SNB-78 CNS = system: SNB-78 CNS
RXF-631 renal = system: RXF-631 renal
MCF7 breast = system: MCF7 breast
MDA-MB-231 breast = system: MDA-MB-231 breast
MDA-N = system: MDA-N
PC-3 prostate = system: PC-3 prostate
HS 578T breast = system: HS 578T breast

| SMILES | TGI (DMS 114 small cell lung) | TGI (DMS 273 small cell lung) | TGI (SNB-78 CNS) | TGI (RXF-631 renal) | other results |
| --- | --- | --- | --- | --- | --- |
| CCOC(=O)/C(=C/c1cccc(OC)c1)N(CC)CC | > 100 µM | > 100 µM | > 100 µM | – | – |
| Cl[Si]1(Cl)Oc2ccccc2O[Si](Cl)(Cl)Oc2ccccc2O1 | 6.03 µM | 31.3 µM | – | > 100 µM | – |
| Cc1ccc(S(=O)(=O)N/N=C(\c2nc3ccc([N+](=O)[O-])cc3[nH]c2=O)C(O)c2ccccc2Cl)cc1 (stereo not drawn) | > 100 µM | > 100 µM | > 100 µM | > 100 µM | – |
| CC(C)c1ccccc1NC(=O)/C(Cl)=C1/Sc2ccccc2NC1=O | 53.4 µM | – | > 100 µM | > 100 µM | – |
| CCOC(=O)c1ccc(N[C@@H]2c3cc4c(cc3C(C3=CC(=O)C(=O)C(OC)=C3)[C@H]3C(=O)OCC32)OCO4)cc1 (stereo partly drawn) | 6.89 µM | 13.5 µM | > 54.6 µM | 10 µM | – |
| COC1OC(C)C(OCc2ccccc2)C(OS(=O)(=O)c2ccc(C)cc2)C1OS(=O)(=O)c1ccc(C)cc1 (stereo not drawn) | > 100 µM | > 100 µM | > 100 µM | – | – |
| Cc1c(C(=O)CSc2nc3ccccc3c(=O)n2-c2ccccc2)c(=O)n(-c2ccccc2)n1C | > 100 µM | > 100 µM | > 100 µM | – | – |
| COc1cccc(/C=C2\CCC(C)(CN(C)C)C2=O)c1 (stereo not drawn) | > 100 µM | > 100 µM | > 100 µM | – | – |
| Cc1nnc(N/N=C(/C(=O)C(C#N)c2ccccc2)C(C#N)c2ccccc2)n1N (stereo not drawn) | 13.4 µM | 34.4 µM | > 90 µM | – | – |
| COC(=O)/C(C#N)=C1\CCC(C(=O)OC)N1C (stereo not drawn) | > 100 µM | > 100 µM | > 100 µM | > 100 µM | – |
| Cc1ccc2nc3c(Cl)c(C)c(=O)cc-3sc2c1 | > 1 µM and 76 µM | > 100 µM | > 100 µM | – | GI50 (DMS 114 small cell lung): 25.4 µM; GI50 (SNB-78 CNS): 54 µM |
| CC1=C(C(=O)Nc2ccccc2C)C(/C=C/c2ccccc2)C(C(=O)Nc2ccccc2C)=C(C)N1 | – | > 100 µM | > 100 µM | > 100 µM | – |
| Cc1ccccc1Nc1nc2c(s1)C(=O)c1ccccc1C2=O | 4.69 µM | 21.4 µM | > 64.8 µM | – | TGI (MCF7 breast): 4.36 µM; TGI (MDA-MB-231 breast): 15 µM; TGI (MDA-N): 3.37 µM; TGI (PC-3 prostate): 7.95 µM |
| CC(CC(=O)Nc1ccc(NC(=O)CC(C)N=NC(N)=S)cc1)N=NC(N)=S (stereo not drawn) | > 100 µM | > 100 µM | > 100 µM | > 100 µM | – |
| CC1(Cc2ccccc2)NC(=S)NC1=O (stereo not drawn) | > 100 µM | > 100 µM | > 100 µM | > 100 µM | – |
| CC(=O)OC1COC(n2c(=S)n(-c3ccccc3)c(=O)c3cc(Br)ccc32)C(OC(C)=O)C1OC(C)=O (stereo not drawn) | > 100 µM | > 100 µM | > 100 µM | – | – |
| COc1c(Br)cc(Br)c(OC)c1-c1[nH]c(Br)c(Br)c1Br | 19.4 µM | 25.1 µM | 28.8 µM | 21.9 µM | – |
| Cc1cc2c(Br)cc(Br)c(O)c2nc1C(=O)c1ccccc1 | 97.7 µM | 42.3 µM | > 100 µM | – | TGI (MCF7 breast): > 100 µM; TGI (MDA-MB-231 breast): 78.5 µM; TGI (MDA-N): 96.3 µM; TGI (PC-3 prostate): > 100 µM; TGI (HS 578T breast): > 100 µM |
| O=c1ncccn1C1C=C(CO)C(O)C1O (stereo not drawn) | > 50 µM | > 50 µM | > 50 µM | – | – |
| O=c1c(Cl)c(Cl)cnn1CCc1ccncc1 | 29 µM | 33.6 µM | 49.8 µM | – | – |
| CC/C(=N\NS(=O)(=O)c1ccccc1)c1ccccc1 | – | > 100 µM | > 100 µM | > 100 µM | – |
| C[n+]1c2ccccc2cc2c(CNC(CCCN=C(N)N)C(=O)O)cccc21 (stereo not drawn) | 1.16 µM and 3.36 µM | 8.77 µM and 1.53 µM | 7.93 µM and 35.5 µM | 12.6 µM | GI50 (DMS 114 small cell lung): 1.62 µM; GI50 (DMS 273 small cell lung): 441 nM; GI50 (SNB-78 CNS): 5.8 µM |
| CCN(CC)CC(=O)N1CCc2c([nH]c3ccccc23)C1c1cccnc1 (stereo not drawn) | > 100 µM | > 100 µM | > 100 µM | > 100 µM | – |
| CNC(SC)=C1C(=O)OC(C)(C)OC1=O | > 100 µM | > 100 µM | > 100 µM | – | – |
| C#CCC(N)(CO)C(=O)O (stereo not drawn) | > 100 µM | > 100 µM | > 100 µM | – | – |
| NC(=O)/C=C/C(=O)O | > 5000 µM | > 5000 µM | > 5000 µM | – | – |
| CC1(C)OC2COC3(CNO)OC(C)(C)OC3C2O1 (stereo not drawn) | > 100 µM | > 100 µM | > 100 µM | – | – |
| C=CCC1[C@@H](C(C)(C)C(C(C)=O)C(=O)C(=O)OC)OC(C(C)(C)C)N1C(=O)OC (stereo partly drawn) | – | – | > 100 µM | > 100 µM | – |
| O=C/C(=C(/Cl)c1ccc(O)cc1)c1ccccc1 | 31.2 µM | 48 µM | > 82.9 µM | > 31.6 µM | – |
| CSc1c(C)c(C)nn1-c1ccccc1 | > 100 µM | > 100 µM | > 100 µM | > 100 µM | – |
